Data from US20190151312A1, “HEPARAN SULFATE BIOSYNTHESIS INHIBITORS FOR THE TREATMENT OF DISEASES” (BioMarin Pharmaceutical Inc., priority 2014, published 2019).
Read-outs that look alike come from different tables or passages of the source.

System: GM01896 cells (MPS II dermal fibroblasts)
Assay: Assay 1: MPS cellular assay, MPS II (heparan sulfate disaccharide biomarkers by LC-MS)
Format: cell-based, human
Conditions: Assay 1 for MPS II, heparan sulfate disaccharide biomarkers (I2a4, I2a6, I2S0 and/or I2S6), read-out: IC50 Range
Method in brief: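 Heparan sulfate disaccharide biomarkers quantified by LC-MS after heparinase I/II/III digestion and isotopic aniline labelling, using GM01896 MPS II fibroblasts exposed to compound (at or below 30 μM, 4-21 days). Values given as IC50 by curve fitting; cell viability checked with alamar blue or ATP.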

| SMILES | IC50 (Homo sapiens, Fibroblast) | IC50 |
| --- | --- | --- |
| Cn1nc(CCN2CCOCC2)c2ccc(-c3cc(Nc4ccc(-n5nccn5)cc4)nc(N4CCOCC4)n3)cc21 [{6-[1-methyl-3-(2-morpholin-4-ylethyl)(1H-indazol-6-yl)]-2-morpholin-4-ylpyrimidin-4-yl}(4-(1,2,3-triazol-2-yl)phenyl)amine] | < 500 nM |  |
| CCNC(=O)c1ccc(Nc2cc(-c3ccc4ncn(C)c4c3)nc(N3CCOCC3)n2)cc1 [N-ethyl(4-{[6-(1-methylbenzimidazol-6-yl)-2-morpholin-4-ylpyrimidin-4-yl]amino}phenyl)carboxamide] | 1000 to 5000 nM |  |
| CNC(=O)c1ccc(Nc2cc(-c3ccc4cnn(CCN5CCOCC5)c4c3)nc(N3CCOCC3)n2)cc1 [N-methyl[4-({2-morpholin-4-yl-6-[1-(2-morpholin-4-ylethyl)(1H-indazol-6-yl)]pyrimidin-4-yl}amino)phenyl]carboxamide] | 500 to 1000 nM |  |
| Cc1nnc(-c2ccc(Nc3cc(-c4ccc5cnn(C)c5c4)nc(N4CCOCC4)n3)cc2)[nH]1 [[6-(1-methyl(1H-indazol-6-yl))-2-morpholin-4-ylpyrimidin-4-yl][4-(5-methyl(4H-1,2,4-triazol-3-yl))phenyl]amine] | < 500 nM |  |
| Cn1cnc2ccc(-c3cc(Nc4ccc(NS(C)(=O)=O)cc4)nc(N4CCOCC4)n3)cc21 [(4-{[6-(1-methylbenzimidazol-6-yl)-2-morpholin-4-ylpyrimidin-4-yl]amino}phenyl)(methylsulfonyl)amine] | 1000 to 5000 nM |  |
| CNC(=O)c1ccc(Nc2cc(-c3ccc4nc(C)n(C5CCC5)c4c3)nc(N3CCOCC3)n2)cc1 [(4-{[6-(1-cyclobutyl-2-methylbenzimidazol-6-yl)-2-morpholin-4-ylpyrimidin-4-yl]amino}phenyl)-N-methylcarboxamide] | < 500 nM |  |
| CNC(=O)c1ccc(Nc2cc(-c3ccc4nc(C)n(C)c4c3)nc(N3CCOCC3)n2)cc1 [(4-{[6-(1,2-dimethylbenzimidazol-6-yl)-2-morpholin-4-ylpyrimidin-4-yl]amino}phenyl)-N-methylcarboxamide] | < 500 nM |  |
| Cc1nn(C)c2cc(-c3cc(Nc4ccc(Cl)cc4)nc(N4CCOCC4)n3)cnc12 [[6-(1,3-dimethylpyrazolo[4,5-b]pyridin-6-yl)-2-morpholin-4-ylpyrimidin-4-yl](4-chlorophenyl)amine] | 500 to 1000 nM |  |
| Cn1cnc2ccc(-c3cc(Nc4ccc(F)cc4)nc(N4CCOCC4)n3)cc21 [(4-fluorophenyl)[6-(1-methylbenzimidazol-6-yl)-2-morpholin-4-ylpyrimidin-4-yl]amine] | 1000 to 5000 nM |  |
| COc1cc(Nc2cc(-c3ccc4c(cnn4C)c3)nc(N3CCOCC3)n2)ccn1 [(2-methoxy(4-pyridyl))[6-(1-methyl(1H-indazol-5-yl))-2-morpholin-4-ylpyrimidin-4-yl]amine] | 1000 to 5000 nM |  |
| Cn1ncc2ccc(-c3cc(Nc4ccc5cn[nH]c5c4)nc(N4CCOCC4)n3)cc21 [1H-indazol-6-yl[6-(1-methyl(1H-indazol-6-yl))-2-morpholin-4-ylpyrimidin-4-yl]amine] | 1000 to 5000 nM |  |
| Cn1ncc2ncc(-c3cc(Nc4ccc(Cl)cc4)nc(N4CCOCC4)n3)cc21 [(4-chlorophenyl)[6-(1-methylpyrazolo[4,5-b]pyridin-6-yl)-2-morpholin-4-ylpyrimidin-4-yl]amine] | 500 to 1000 nM |  |
| Cn1c(CN2CCCC2)nc2ccc(-c3cc(Nc4ccc(Cl)cc4)nc(N4CCOCC4)n3)cc21 [(4-chlorophenyl){6-[1-methyl-2-(pyrrolidinylmethyl)benzimidazol-6-yl]-2-morpholin-4-ylpyrimidin-4-yl}amine] | 1000 to 5000 nM |  |
| Cn1ncc2ccc(-c3cc(Nc4ccc5cc[nH]c5c4)nc(N4CCOCC4)n3)cc21 [indol-6-yl[6-(1-methyl(1H-indazol-6-yl))-2-morpholin-4-ylpyrimidin-4-yl]amine] | 1000 to 5000 nM |  |
| Cn1cnc2ccc(-c3cc(Nc4ccc(NC(=O)OC(C)(C)C)cc4)nc(N4CCOCC4)n3)cc21 [(tert-butoxy)-N-(4-{[6-(1-methylbenzimidazol-6-yl)-2-morpholin-4-ylpyrimidin-4-yl]amino}phenyl)carboxamide] | 1000 to 5000 nM |  |
| Cc1nc2cc(-c3cc(Nc4ccc(Cl)cc4)nc(N4CCOCC4)n3)ccc2n1CCN1CCOCC1 [(4-chlorophenyl){6-[2-methyl-1-(2-morpholin-4-ylethyl)benzimidazol-5-yl]-2-morpholin-4-ylpyrimidin-4-yl}amine] | 1000 to 5000 nM |  |
| Cn1ncc2ccc(-c3cc(Nc4ccc(-c5cocn5)cc4)nc(N4CCOCC4)n3)cc21 [[6-(1-methyl(1H-indazol-6-yl))-2-morpholin-4-ylpyrimidin-4-yl](4-(1,3-oxazol-4-yl)phenyl)amine] | < 500 nM |  |
| Cn1ccc2ccc(Nc3cc(-c4ccc5c(CCN6C(=O)c7ccccc7C6=O)nn(C)c5c4)nc(N4CCOCC4)n3)cc21 [2-[2-(1-methyl-6-{6-[(1-methylindol-6-yl)amino]-2-morpholin-4-ylpyrimidin-4-yl}-1H-indazol-3-yl)ethyl]benzo[c]azoline-1,3-dione] | 500 to 1000 nM |  |

| SMILES | IC50 (Homo sapiens, Fibroblast) | IC50 |
| --- | --- | --- |
| Cn1c(C2CC2)nc2ccc(-c3cc(Nc4ccc(Cl)cc4)nc(N4CCOCC4)n3)cc21 [(4-chlorophenyl)[6-(2-cyclopropyl-1-methylbenzimidazol-6-yl)-2-morpholin-4-ylpyrimidin-4-yl]amine] | 500 to 1000 nM |  |
| Cn1nc(CCN2CCOCC2)c2ccc(-c3cc(Nc4ccc5ccn(C6CC6)c5c4)nc(N4CCOCC4)n3)cc21 [(1-cyclopropylindol-6-yl) {6-[1-methyl-3-(2-morpholin-4-ylethyl)(1H-indazol-6-yl)]-2-morpholin-4-ylpyrimidin-4-yl}amine] | 1000 to 5000 nM |  |
| CNC(=O)c1ccc(Nc2cc(-c3ccc4cnn(CCOC)c4c3)nc(N3CCOCC3)n2)cc1 [[4-({6-[1-(2-methoxyethyl)(1H-indazol-6-yl)]-2-morpholin-4-ylpyrimidin-4-yl}amino)phenyl]-N-methylcarboxamide] | < 500 nM |  |
| Cc1nn(C)c2cc(-c3cc(Nc4ccc(-c5ncc[nH]5)cc4)nc(N4CCOCC4)n3)ccc12 [[6-(1,3-dimethyl(1H-indazol-6-yl))-2-morpholin-4-ylpyrimidin-4-yl](4-imidazol-2-ylphenyl)amine] | < 500 nM |  |
| COCCc1nc2ccc(-c3cc(Nc4ccc(Cl)cc4)nc(N4CCOCC4)n3)cc2n1C [(4-chlorophenyl){6-[2-(2-methoxyethyl)-1-methylbenzimidazol-6-yl]-2-morpholin-4-ylpyrimidin-4-yl}amine] | 500 to 1000 nM |  |
| CN(C)CCCn1cnc2cc(-c3cc(Nc4ccc(Cl)cc4)nc(N4CCOCC4)n3)ccc21 [[3-(5-{6-[(4-chlorophenyl)amino]-2-morpholin-4-ylpyrimidin-4-yl}benzimidazolyl)propyl]dimethylamine] |  | 500 to 1000 nM |
| CN1NC=C2CC=C(c3cc(Nc4ccc(C(N)=O)cc4)nc(N4CCOCC4)n3)C=C21 [4-((6-(1-methyl-4H-indazol-6-yl)-2-morpholinopyrimidin-4-yl)amino)benzamide] | 500 to 1000 nM |  |
| Cn1nc(CCCN2CCCC2)c2ccc(-c3cc(Nc4ccc(Cl)cc4)nc(N4CCOCC4)n3)cc21 [(4-chlorophenyl){6-[1-methyl-3-(3-pyrrolidinylpropyl)(1H-indazol-6-yl)]-2-morpholin-4-ylpyrimidin-4-yl}amine] | 500 to 1000 nM |  |
| Cc1nn(C)c2cc(-c3cc(Nc4ccc(-c5nnc(C6CC6)[nH]5)cc4)nc(N4CCOCC4)n3)ccc12 [[6-(1,3-dimethyl(1H-indazol-6-yl))-2-morpholin-4-ylpyrimidin-4-yl][4-(5-cyclopropyl(4H-1,2,4-triazol-3-yl))phenyl]amine] | < 500 nM |  |
| COc1ccc(Cn2cc(-c3ccc(Nc4cc(-c5ccc6c(C)nn(C)c6c5)nc(N5CCOCC5)n4)cc3)cn2)cc1 [[6-(1,3-dimethyl(1H-indazol-6-yl))-2-morpholin-4-ylpyrimidin-4-yl](4-{1-[(4-methoxyphenyl)methyl]pyrazol-4-yl}phenyl)amine] | 1000 to 5000 nM |  |
| Clc1ccc(Nc2cc(-c3ccc4c(Cl)nn(CCCN5CCOCC5)c4c3)nc(N3CCOCC3)n2)cc1 [{6-[3-chloro-1-(3-morpholin-4-ylpropyl)(1H-indazol-6-yl)]-2-morpholin-4-ylpyrimidin-4-yl}(4-chlorophenyl)amine] | 1000 to 5000 nM |  |
| CNC(=O)c1ccc(Nc2cc(-c3ccc4ncn(C)c4c3)nc(N3CCOCC3)n2)cc1 [N-methyl(4-{[6-(1-methylbenzimidazol-6-yl)-2-morpholin-4-ylpyrimidin-4-yl]amino}phenyl)carboxamide] | < 500 nM |  |
| Cc1nc2ccc(-c3cc(Nc4ccc(Cl)cc4)nc(N4CCOCC4)n3)cc2n1CCN(C)C [[2-(6-{6-[(4-chlorophenyl)amino]-2-morpholin-4-ylpyrimidin-4-yl}-2-methylbenzimidazolyl)ethyl]dimethylamine] |  | 1000 to 5000 nM |
| Cn1nc(CCN2CCCC2)c2ccc(-c3cc(Nc4ccc(Cl)cc4)nc(N4CCOCC4)n3)cc21 [(4-chlorophenyl){6-[1-methyl-3-(2-pyrrolidinylethyl)(1H-indazol-6-yl)]-2-morpholin-4-ylpyrimidin-4-yl}amine] | 500 to 1000 nM |  |
| CNC(=O)c1ccc(Nc2cc(-c3ccc4cnn(CCN5CCCC5)c4c3)nc(N3CCOCC3)n2)cc1 [N-methyl[4-({2-morpholin-4-yl-6-[1-(2-pyrrolidinylethyl)(1H-indazol-6-yl)]pyrimidin-4-yl}amino)phenyl]carboxamide] | 500 to 1000 nM |  |
| Cc1cnn(-c2ccc(Nc3cc(-c4ccc5c(C)nn(C)c5c4)nc(N4CCOCC4)n3)cc2)n1 [[6-(1,3-dimethyl(1H-indazol-6-yl))-2-morpholin-4-ylpyrimidin-4-yl][4-(4-methyl(1,2,3-triazol-2-yl))phenyl]amine] | < 500 nM |  |
| Cn1nc(CCN2CCNCC2)c2ccc(-c3cc(Nc4ccc(Cl)cc4)nc(N4CCOCC4)n3)cc21 [(4-chlorophenyl){6-[1-methyl-3-(2-piperazinylethyl)(1H-indazol-6-yl)]-2-morpholin-4-ylpyrimidin-4-yl}amine] | 1000 to 5000 nM |  |
